Measurements reported in PMC12024912, “Druggability Studies of Benzene Sulfonamide Substituted Diarylamide (E3) as a Novel Diuretic” (Biomedicines, 2025).
Like-named read-outs stand apart in the source and are kept apart here.

What was measured:
UT-B = target: T1, UT-B (Mus musculus, UniProt Q8VHL0); assay: Erythrocyte lysis assay for UT-B inhibition, mouse erythrocytes; assay type: cell-based
T1 construct: endogenous in cells; host or cells: erythrocytes from wild-type C57BL/6 mice
T1 sequence (Q8VHL0 1-384): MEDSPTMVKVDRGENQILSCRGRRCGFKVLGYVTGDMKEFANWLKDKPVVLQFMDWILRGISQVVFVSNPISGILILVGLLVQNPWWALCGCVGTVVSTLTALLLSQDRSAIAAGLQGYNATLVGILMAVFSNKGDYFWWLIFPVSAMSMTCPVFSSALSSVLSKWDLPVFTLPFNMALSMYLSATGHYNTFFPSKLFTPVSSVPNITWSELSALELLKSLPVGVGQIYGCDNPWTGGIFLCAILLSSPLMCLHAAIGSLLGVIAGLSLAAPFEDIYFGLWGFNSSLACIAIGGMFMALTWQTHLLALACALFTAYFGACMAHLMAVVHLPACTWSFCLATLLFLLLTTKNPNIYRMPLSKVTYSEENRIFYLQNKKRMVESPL
Description: The erythrocyte lysis assay was modified from a method described previously. Erythrocytes obtained from veins were diluted to a hematocrit value of 2% in hyperosmolar PBS containing 1.25 mol/L urea and 5 mmol/L glucose and incubated at r.t. for 2 h. Then, 99 μL erythrocyte suspension from a reservoir was added to each well of a 96-well round-bottom microplate, then 1 μL of the testing compound (500, 125, 31.25, 7.81, 1.95, 0.488, 0.122, 0.031, 0.0076 μmol/L dissolved in DMSO) was added to erythrocyte suspension and shook it up with microoscillator for 1 min. Following 5 min incubation, 20 μL erythrocyte suspension was transferred into 96-well black microplates preloaded with 180 μL isotonic PBS (10 mM, urea-free). Erythrocyte lysis was monitored at 710 nm optical density (OD710) for 6 min, with lysis rates calculated using control values from the same plate as Equation (1):Lysis (%) = 100 × (Aneg − Atest)/(Aneg − Apos)(1) where Atest is the absorbance value from the test well, Aneg is from a negative no-lysis control well, and Apos is from a positive full-lysis control.

SD rats = assay: Diuretic effect of single intragastric administration in rats (metabolic cages); assay type: in vivo, rat
Description: In a single-dose administration experiment, male wild-type (WT) mice, UT-B^-/- mice, UT-A1^-/- mice, or SD rats were adapted in metabolic cages for 3 d. Food and water were provided ad libitum throughout the experiment. Prior to administration, the bladder of each animal was emptied through gentle abdominal massage, and urine was collected from the metabolic cages every 2 h. Compound E3, suspended in 0.5% CMC-Na at an appropriate concentration, was administered intragastric gavage to the mice or rats (0.16, 0.8, 4, or 20 mg/kg). Vehicle control comprised 0.5% (w/v) CMC-Na. Urinary parameters were determined through the following: volume: Gravimetric analysis (1 g/mL density assumption); osmolality: freezing-point osmometry (Micro-osmometer, […] Associates, Norwood, MA, USA); and urea: diacetyl oxime colorimetry (QuantiChrom® kit, Elabscience, Wuhan, China). In long-term (7 d) diuretic activity experiments, male WT mice, UT-B^-/- mice, UT-A1^-/- mice, and SD rats were acclimatized in metabolic cages (Ugo Basile, Comerio, VA, Italy) for 3 d. Food and water were provided ad libitum throughout the experiment. E3 was suspended in 0.5% CMC-Na and administered at a dose of 4 or 20 mg/kg by intragastric gavage. Urine was collected by metabolic cages every 24 h. Body weight was measured daily. At 4 h after the final administration, a blood sample was obtained by heart puncture. Inner medulla and outer medulla tissue homogenates were prepared, and the supernatant after centrifugation was analyzed for solute concentration and osmolality. Urinary osmolality and urea concentration were measured as above. Serum Na^+, K^+, and Cl^- were measured in a clinical chemistry laboratory, while serum creatinine, ALT, and AST were measured through specific reagent kits (NJJC Bio, Nanjing, China).

[1] = Subacute oral toxicity test in mice; assay type: in vivo; conditions: male, mouse, in vivo, 1000 mg/kg, oral, 30 d, read-out: no observed adverse effect level (NOAEL)
Description: (§1) The subacute oral toxicity test was performed according to “Guidance on Repeated Dose Toxicity Study for Pharmaceuticals” (2014). […] Eighteen male mice were evenly divided into two groups. Mice of the control group were orally administered with solvent (0.5% CMC-Na). Another group was orally administered with E3 1000 mg/kg. The solvent or E3 was administered once a day for 30 continuous days and withdrawn for 14 d for recovery. After the 30-day treatment, 12 mice (6/group) were chosen at random and sacrificed for necropsy.
(§2) During the study, the clinical symptoms, morbidity, and mortality of mice were observed twice a day at the side of the cage. Changes in appearance, behavior, appetite, gait, secretions, and excretions of the rats were meticulously documented. The body weights were measured before the start of the experiment, and the weights were measured every 2 d thereafter. Echocardiography was performed and evaluated every 10 d. Under anesthesia, blood samples were taken before the autopsy for hematological and clinical biochemistry analysis by an automated hematology analyzer (HEMAVET 950FS, Drew Scientific, TX, USA) and an automated biochemical analyzer (BS-180, Mindray Diagnostics, Shenzhen, China). The following organs were weighed: heart, liver, kidney, spleen, lung, thymus gland, testis, and brain. Furthermore, the corresponding organ/body weight ratio was computed. A comprehensive histopathological analysis was performed on vital tissues and organs.

mice = assay: Subacute oral toxicity test in mice; assay type: in vivo
Description: as §1, §2

Which “maximum inhibition rate, mouse cells” value (UT-B; erythrocyte lysis assay) does the source give for `CC(=O)c1ccc(C(=O)Nc2cccc(NS(=O)(=O)c3ccccc3)c2)o1` [Compound E3, 5-acetyl-N-(3-(phenylsulfonamido)phenyl)furan-2-carboxamide] here?
Its value is “approximately 100%”.

And the IC50 (UT-B; erythrocyte lysis model, mouse, n = 3, means, read-out: IC50 (μM) Mouse)?
The IC50 was 0.05 µM.

What about the IC50 (UT-B; red blood cell lysis assay, read-out: IC50 for UT-B-promoted urea transport, mice) of the same compound?
Its IC50 is 0.0477 µM.

What about the urinary osmolality (SD rats; single intragastric gavage) of the same compound?
Its urinary osmolality is “decreased”.

And the urinary urea (SD rats; single intragastric gavage)?
Its urinary urea is “decreased”.

And the urine output (SD rats; single intragastric gavage 0.16-20 mg/kg, vs vehicle)?
Its urine output is “significantly increased”.

What about the “excretion of non-urea solutes” value (SD rats; single intragastric gavage, vs control) of the same compound?
Its value is “not significantly different”.

And the NOAEL at 30 d [1]?
Its NOAEL at 30 d is 1000 mg/kg/day.

And the “appearance, behavior, secretions, and excretions” value (mice; 1000 mg/kg daily oral, 30 days)?
The value was “no apparent abnormality”.

What about the “body weight or organ indexes” value (mice; 1000 mg/kg daily oral, 30 days) of the same compound?
Its value is “no significant change”.

What about the “histopathology of brain, lung, heart, spleen, liver, kidney, testis” value (mice; 1000 mg/kg daily oral, 30 days) of the same compound?
The value was “No histopathological toxic lesion”.

And the “blood parameters and blood biochemical indexes” value (mice; 1000 mg/kg daily oral, 30 days, vs control)?
Its value is “no significant changes”.

What about the “left ventricular ejection fraction and fractional shortening (cardiac ultrasound)” value (mice; 1000 mg/kg daily, during and after administration) of the same compound?
The value was “no significant abnormality”.

And the EOS (mice; 1 g/kg, 30 d, mean, n=9)?
The EOS was 0.13%.

And the HB (mice; 1 g/kg, 30 d, mean, n=9)?
The HB was 80.11 g/L.

What about the HCT (mice; 1 g/kg, 30 d, mean, n=9) of the same compound?
The HCT was 41.04%.

And the LYM (mice; 1 g/kg, 30 d, mean, n=9)?
The LYM was 74.12%.

And the MCH (mice; 1 g/kg, 30 d, mean, n=9)?
Its MCH is 9.96 pg.

And the MCHC (mice; 1 g/kg, 30 d, mean, n=9)?
Its MCHC is 195.33 g/L.

What about the MCV (mice; 1 g/kg, 30 d, mean, n=9) of the same compound?
Its MCV is 51.09 fL.

What about the MONO (mice; 1 g/kg, 30 d, mean, n=9) of the same compound?
The MONO was 3.02%.

And the MPV (mice; 1 g/kg, 30 d, mean, n=9)?
The MPV was 3.01 fL.

And the NEU (mice; 1 g/kg, 30 d, mean, n=9)?
Its NEU is 22.71%.

What about the PLT (mice; 1 g/kg, 30 d, mean, n=9) of the same compound?
Its PLT is 1313.22 109/L.

What about the RBC (mice; 1 g/kg, 30 d, mean, n=9) of the same compound?
The RBC was 8.03 1012/L.

What about the RDW (mice; 1 g/kg, 30 d, mean, n=9) of the same compound?
Its RDW is 16.07%.

What about the WBC (mice; 1 g/kg, 30 d, mean, n=9) of the same compound?
Its WBC is 8.37 109/L.

What about the “delayed toxicity (14 d recovery period)” value (mice; after 30 d of 1000 mg/kg) of the same compound?
The value was “no delayed toxicity”.
